Assay results published in patent US11999727B2 (Tango Therapeutics, Inc., priority 2020, dated 2024).
Read-outs that look alike come from different tables or passages of the source.

How the values were obtained:
[1] = test system: HAP1 MTAP-intact cell line; test: SDMA in-cell western assay, HAP1 MTAP-intact; type: cell-based; settings: Homo sapiens
Summary of the method: (§1)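 MTAP-null vs endogenous-MTAP HAP1 isogenic cells; in-cell western SDMA readout; IC50 per line.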

[2] = molecular target: T1, PRMT5 (Homo sapiens, UniProt O14744); test: PRMT5 biochemical IC50 assay with SAM as cofactor; settings: PRMT5, SAM as cofactor; read-out: SAM IC50
T1 construct: purchased Viva (custom protein)

[3] = molecular target: T1, PRMT5; test: PRMT5 biochemical IC50 assay with MTA as cofactor; settings: PRMT5, MTA as cofactor; read-out: MTA IC50
[4] = test system: HAP1 MTAP-deleted cell line; test: SDMA in-cell western assay, HAP1 MTAP-deleted; type: cell-based; settings: for IC50: Homo sapiens; for MTAP intact/deleted ratio: SDMA in-cell western
Summary of the method: as §1

[5] = test system: HAP1 MTAP-deleted cell line; test: Viability assay, MTAP-deleted cell line; type: cell-based; settings: Homo sapiens
Source text: Table 1 additionally indicates IC50 values in a viability assay for the MTAP-deleted cell line (column 10), indicating the effect of treatment with compound on cell survival.

[6] = molecular target: T1, PRMT5; test: PRMT5 biochemical IC50 assay with no cofactor; settings: PRMT5, no cofactor
Source text: Table 1 indicates IC50 values (μM) against PRMT5 for exemplary compounds in the presence of SAM as cofactor, with no cofactor, and with MTA as cofactor, respectively (columns 4-6). […] Ki values can be calculated from the IC50 values as described in the Examples section. As detailed in the Examples section, for the assay performed in the presence of SAM, IC50=Ki×1.5 (Ki=IC50/1.5).

[7] = HAP1, SDMA in-cell western, HAP1 MTAP-intact, read-out: MTAP HAP1 intact IC50
[8] = HAP1, SDMA in-cell western, HAP1 MTAP-deleted, read-out: HAP1 MTAP deleted IC50
[9] = IC50 ratio HAP1 MTAP-intact / HAP1 MTAP-deleted
[10] = HAP1, viability assay, MTAP-deleted cell line, read-out: HAP1 MTAP deleted viability
[11] = IC50 ratio HAP1 MTAP-intact vs HAP1 MTAP-deleted
[12] = HAP1, read-out: MTAP HAP1 intact IC50
[13] = HAP1, read-out: HAP1 MTAP deleted IC50
[14] = HAP1, read-out: HAP1 MTAP deleted viability
[15] = HAP1, SDMA in-cell western, HAP1 MTAP-deleted, read-out: HAP 1 MTAP deleted IC50
[16] = read-out: No Cofactor/ rel IC50
[17] = HAP1, viability assay, HAP1 MTAP-deleted, read-out: HAP1 MTAP deleted viability

T1 sequence (O14744 whole entry): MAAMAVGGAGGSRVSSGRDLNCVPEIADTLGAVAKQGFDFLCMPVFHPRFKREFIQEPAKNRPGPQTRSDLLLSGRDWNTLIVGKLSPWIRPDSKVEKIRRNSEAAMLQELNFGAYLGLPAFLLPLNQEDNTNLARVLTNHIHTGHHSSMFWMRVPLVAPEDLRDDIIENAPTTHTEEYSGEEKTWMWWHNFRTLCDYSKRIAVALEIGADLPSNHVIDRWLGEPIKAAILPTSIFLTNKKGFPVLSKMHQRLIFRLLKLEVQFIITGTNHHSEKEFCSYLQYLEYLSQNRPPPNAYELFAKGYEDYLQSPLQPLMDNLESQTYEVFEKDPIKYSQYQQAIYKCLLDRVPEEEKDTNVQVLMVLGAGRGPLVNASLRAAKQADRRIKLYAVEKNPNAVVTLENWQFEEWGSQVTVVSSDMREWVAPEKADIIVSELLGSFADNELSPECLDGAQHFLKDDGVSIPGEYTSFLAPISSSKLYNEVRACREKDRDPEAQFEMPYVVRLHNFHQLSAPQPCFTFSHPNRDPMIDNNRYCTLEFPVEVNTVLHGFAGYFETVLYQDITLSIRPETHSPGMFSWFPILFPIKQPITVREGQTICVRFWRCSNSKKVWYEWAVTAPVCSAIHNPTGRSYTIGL
T1 sequence (Q9BQA1 whole entry partner): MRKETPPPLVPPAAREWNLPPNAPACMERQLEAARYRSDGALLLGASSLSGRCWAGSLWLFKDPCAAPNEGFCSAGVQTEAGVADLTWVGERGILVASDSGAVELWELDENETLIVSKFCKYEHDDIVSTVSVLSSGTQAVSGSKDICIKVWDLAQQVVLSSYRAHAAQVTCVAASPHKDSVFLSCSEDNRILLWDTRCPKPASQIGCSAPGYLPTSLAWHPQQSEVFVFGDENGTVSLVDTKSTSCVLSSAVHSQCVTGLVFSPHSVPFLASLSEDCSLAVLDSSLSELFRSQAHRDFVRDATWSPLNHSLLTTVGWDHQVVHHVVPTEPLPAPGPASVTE

SMILES	IC50 [1, 7] [µM]	IC50 [2] [µM]	IC50 [3] [µM]	IC50 [4, 8] [µM]	IC50 ([6]; read-out: No Cofactor/rel IC50) [µM]	IC50 [4, 15] [µM]	IC50 [6, 16] [µM]	MTAP intact/deleted ratio [4, 9]	IC50 [5, 10] [µM]	MTAP intact/deleted ratio [4, 11]	IC50 [1, 12] [µM]	IC50 [4, 13] [µM]	IC50 [5, 14] [µM]	IC50 ([5]; HAP1, viability, HAP1 MTAP-deleted cell line, read-out: HAP1 MTAP deleted viability) [µM]	IC50 [5, 17] [µM]
COc1cc(OC)cc([C@@H]2CC[C@@H](C)CN2C(=O)C(=O)Nc2cncc(C(N)=O)c2)c1 (racemic) [Compound 428, rac-5-{2-[(2R,5S)-2-(3,5-Dimethoxyphenyl)-5-methylpiperidin-1-yl]-2-oxoacetamido}pyridine-3-carboxamide]	> 1	> 0.5	0.05 to 0.5	0.1 to 1	> 0.5	–	–	A (an IC50 ratio greater than or equal to 10 fold)	> 10	–	–	–	–	–	–
COc1ncc(NC(=O)C(=O)N2C[C@H](C)CC[C@H]2c2ccc3scnc3c2)cc1C(N)=O (single isomer, unassigned) [Compound 603]	–	> 0.5	> 0.5	–	> 0.5	–	–	C (an IC50 ratio of less than 3 fold)	–	–	> 1	> 1	> 10	–	–
O=Cc1cncc(NC(=O)C(=O)N2CCCCC2c2ccccc2)c1 (stereo not drawn) [Compound 147, N-(5-formylpyridin-3-yl)-2-oxo-2-(2-phenylpiperidin-1-yl)acetamide]	> 1	> 0.5	0.05 to 0.5	–	–	> 1	> 0.5	C (an IC50 ratio of less than 3 fold)	> 10	–	–	–	–	–	–
Cc1cc(NC(=O)C(=O)N2CCCC[C@@H]2C(C)C)cnc1N (single isomer, unassigned) [Compound 204]	> 1	> 0.5	0.05 to 0.5	> 1	> 0.5	–	–	C (an IC50 ratio of less than 3 fold)	> 10	–	–	–	–	–	–
C[C@@H]1CC[C@@H](c2ccn(-c3cc[nH]n3)n2)N(C(=O)C(=O)Nc2cncc(C(N)=O)c2)C1 (single isomer, unassigned) [Compound 899]	> 1	0.05 to 0.5	< 0.05	–	0.05 to 0.5	0.1 to 1	–	A (an IC50 ratio greater than or equal to 10 fold)	1 to 10	–	–	–	–	–	–
Cc1cc(NC(=O)C(=O)N2C[C@@H]3CC[C@@H](C3)[C@@H]2c2cccs2)cnc1N (single isomer, unassigned) [Compound 137]	> 1	0.05 to 0.5	< 0.05	–	–	< 0.1	0.05 to 0.5	A (an IC50 ratio greater than or equal to 10 fold)	> 10	–	–	–	–	–	–
COc1ncc(NC(=O)C(=O)N2C[C@@H](C)CC[C@@H]2c2ccc3sc([C@H]4CCN(C)C[C@H]4C)nc3c2)cc1C(N)=O (racemic) [Compound 1185, 2-methoxy-5-[[2-oxo-2-[rac-(2R,5S)-5-methyl-2-[2-[rac-(3S,4S)-1,3-dimethyl-4-piperidyl]-1,3-benzothiazol-5-yl]-1-piperidyl]acetyl]amino]pyridine-3-carboxamide]	< 0.1	< 0.05	< 0.05	< 0.1	< 0.05	–	–	–	< 1	A (an IC50 ratio greater than or equal to 10 fold)	–	–	–	–	–
COc1ncc(NC(=O)C(=O)N2C[C@H](C)CC[C@@H]2c2ccccc2)cc1C(N)=O (single isomer, unassigned) [Compound 308]	–	0.05 to 0.5	< 0.05	–	> 0.5	–	–	A (an IC50 ratio greater than or equal to 10 fold)	–	–	> 1	0.1 to 1	> 10	–	–

Now from value to compound, other results behind:

IC50 [1, 7] [µM]	IC50 [2] [µM]	IC50 [3] [µM]	IC50 [4, 8] [µM]	IC50 ([6]; read-out: No Cofactor/rel IC50) [µM]	IC50 [4, 15] [µM]	IC50 [6, 16] [µM]	SMILES	MTAP intact/deleted ratio [4, 9]	IC50 [5, 10] [µM]	MTAP intact/deleted ratio [4, 11]	IC50 [1, 12] [µM]	IC50 [4, 13] [µM]	IC50 [5, 14] [µM]	IC50 ([5]; HAP1, viability, HAP1 MTAP-deleted cell line, read-out: HAP1 MTAP deleted viability) [µM]	IC50 [5, 17] [µM]
0.1 to 1	0.05 to 0.5	< 0.05	< 0.1	< 0.05	–	–	CCc1cc(NC(=O)C(=O)N2C[C@@H](C)CC[C@@H]2c2ccc3sc(C4CCN(C)C(=O)C4)nc3c2)cnc1N (mixture of isomers) [Compound 1110, N-(6-amino-5-ethylpyridin-3-yl)-2-((2R,5S)-5-methyl-2-(2-(1-methyl-2-oxopiperidin-4-yl)benzo[d]thiazol-5-yl)piperidin-1-yl)-2-oxoacetamide]	–	< 1	A (an IC50 ratio greater than or equal to 10 fold)	–	–	–	–	–
< 0.1	< 0.05	< 0.05	< 0.1	< 0.05	–	–	CCc1cc(NC(=O)C(=O)N2CC(C)CCC2c2ccc3sc(C4CCN(C)CC4C)nc3c2)cnc1N (racemic) [Compound 1098, N-(6-amino-5-ethyl-3-pyridyl)-2-oxo-2-[rac-(2R,5S)-5-methyl-2-[2-[rac-(3R,4S)-1,3-dimethyl-4-piperidyl]-1,3-benzothiazol-5-yl]-1-piperidyl]acetamide]	–	< 1	B (an IC50 ratio greater than or equal to 3 fold but lower than 10 fold)	–	–	–	–	–
> 1	> 0.5	> 0.5	> 1	> 0.5	–	–	Cc1cc(NC(=O)C(=O)N2C[C@@H](C)CC[C@@H]2c2ccc(NS(C)(=O)=O)cc2)cnc1N (single isomer, unassigned) [Compound 506]	B (an IC50 ratio greater than or equal to 3 fold but lower than 10 fold)	> 10	–	–	–	–	–	–
< 0.1	0.05 to 0.5	< 0.05	–	–	< 0.1	< 0.05	Cc1cc(NC(=O)C(=O)N2C[C@@H](C)CC[C@@H]2c2ccc3sc(C4COC4)nc3c2)cnc1N [Compound 1266, N-(6-amino-5-methylpyridin-3-yl)-2-((2R,5S)-5-methyl-2-(2-(oxetan-3-yl)benzo[d]thiazol-5-yl)piperidin-1-yl)-2-oxoacetamide]	A (an IC50 ratio greater than or equal to 10 fold)	–	–	–	–	–	< 1	–
> 1	0.05 to 0.5	< 0.05	–	–	0.1 to 1	0.05 to 0.5	C[C@@H]1CC[C@@H](c2cccnc2)N(C(=O)C(=O)Nc2cncc(C(N)=O)c2)C1 (racemic) [Compound 102, 5-[[2-[5-methyl-2-(3-pyridyl)-1-piperidyl]-2-oxo-acetyl]amino]pyridine-3-carboxamide]	A (an IC50 ratio greater than or equal to 10 fold)	> 10	–	–	–	–	–	–
< 0.1	0.05 to 0.5	0.05 to 0.5	< 0.1	0.05 to 0.5	–	–	CCc1cc(NC(=O)C(=O)N2C[C@@H](C)[C@@H](OC)C[C@@H]2c2cccc(OCCN(C)C)c2)cnc1N (racemic) [Compound 1139, N-(6-amino-5-ethyl-3-pyridyl)-2-oxo-2-[rac-(2R,4S,5R)-2-[3-[2-(dimethylamino)ethoxy]phenyl]-4-methoxy-5-methyl-1-piperidyl]acetamide]	–	< 1	B (an IC50 ratio greater than or equal to 3 fold but lower than 10 fold)	–	–	–	–	–
> 1	> 0.5	> 0.5	> 1	> 0.5	–	–	CCc1cc(NC(=O)C(=O)N2C[C@@H](C)CC[C@@H]2c2ccc(-c3nccs3)cc2)cnc1N (single isomer, unassigned) [Compound 822]	C (an IC50 ratio of less than 3 fold)	–	–	–	–	–	–	> 10
> 1	0.05 to 0.5	0.05 to 0.5	< 0.1	0.05 to 0.5	–	–	COc1cc([C@@H]2CC[C@@H](C)CN2C(=O)C(=O)Nc2cncc(C(N)=O)c2)ccn1 (racemic) [Compound 225, rac-5-{2-[(2R,5S)-2-(2-Methoxypyridin-4-yl)-5-methylpiperidin-1-yl]-2-oxoacetamido}pyridine-3-carboxamide]	A (an IC50 ratio greater than or equal to 10 fold)	1 to 10	–	–	–	–	–	–
> 1	> 0.5	> 0.5	–	> 0.5	> 1	–	Cc1cc(NC(=O)C(=O)N2C[C@H](C)CC[C@H]2c2cn[nH]c2)cnc1N (single isomer, unassigned) [Compound 969]	C (an IC50 ratio of less than 3 fold)	> 10	–	–	–	–	–	–
> 1	> 0.5	> 0.5	> 1	> 0.5	–	–	Cc1nc2cc([C@@H]3CC[C@@H](C)CN3C(=O)C(=O)Nc3cnc(N)c(C)c3)ccc2s1 (single isomer, unassigned) [Compound 730]	C (an IC50 ratio of less than 3 fold)	–	–	–	–	–	–	> 10
